Experimental data as given in PubChem BioAssay (NCI).
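96-well plates; 48 h exposure; 5 concentrations. Endpoints by linear interpolation between flanking doses. Not reached: highest tested concentration assigned. GI50 marks 50% less growth. Definition used: TGI = concentration required for complete inhibition of growth.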

Assays:
Assay in all cases: inhibition of tumour cell growth, NCI panel, 48 h
786-0 renal = test system: 786-0 renal
A498 renal = test system: A498 renal
A549 NSCLC = test system: A549 NSCLC
ACHN renal = test system: ACHN renal
BT-549 breast = test system: BT-549 breast
CAKI-1 renal = test system: CAKI-1 renal
CCRF-CEM leukemia = test system: CCRF-CEM leukemia
COLO 205 colon = test system: COLO 205 colon
DU-145 prostate = test system: DU-145 prostate
HCC-2998 colon = test system: HCC-2998 colon
HCT-116 colon = test system: HCT-116 colon
HCT-15 colon = test system: HCT-15 colon
HL-60(TB) leukemia = test system: HL-60(TB) leukemia
HOP-62 NSCLC = test system: HOP-62 NSCLC
HOP-92 NSCLC = test system: HOP-92 NSCLC
HS 578T breast = test system: HS 578T breast
HT29 colon = test system: HT29 colon
IGROV1 ovarian = test system: IGROV1 ovarian
K-562 leukemia = test system: K-562 leukemia
KM12 colon = test system: KM12 colon
LOX IMVI melanoma = test system: LOX IMVI melanoma
M14 melanoma = test system: M14 melanoma
MALME-3M melanoma = test system: MALME-3M melanoma
MCF7 breast = test system: MCF7 breast
MDA-MB-231 breast = test system: MDA-MB-231 breast
MDA-MB-435 = test system: MDA-MB-435
MOLT-4 leukemia = test system: MOLT-4 leukemia
NCI-H226 lung = test system: NCI-H226 lung
NCI-H23 lung = test system: NCI-H23 lung
NCI-H460 lung = test system: NCI-H460 lung
NCI-H522 lung = test system: NCI-H522 lung
NCI/ADR-RES ovarian = test system: NCI/ADR-RES ovarian
OVCAR-3 ovarian = test system: OVCAR-3 ovarian
OVCAR-4 ovarian = test system: OVCAR-4 ovarian
OVCAR-5 ovarian = test system: OVCAR-5 ovarian
OVCAR-8 ovarian = test system: OVCAR-8 ovarian
PC-3 prostate = test system: PC-3 prostate
RPMI-8226 leukemia = test system: RPMI-8226 leukemia
RXF 393 renal = test system: RXF 393 renal
SF-268 CNS = test system: SF-268 CNS
SF-295 CNS = test system: SF-295 CNS
SF-539 CNS = test system: SF-539 CNS
SK-MEL-2 melanoma = test system: SK-MEL-2 melanoma
SK-MEL-28 melanoma = test system: SK-MEL-28 melanoma
SK-MEL-5 melanoma = test system: SK-MEL-5 melanoma
SK-OV-3 ovarian = test system: SK-OV-3 ovarian
SN12C renal = test system: SN12C renal
SNB-19 CNS = test system: SNB-19 CNS
SNB-75 CNS = test system: SNB-75 CNS
SR leukemia = test system: SR leukemia
SW-620 colon = test system: SW-620 colon
T-47D breast = test system: T-47D breast
TK-10 renal = test system: TK-10 renal
U251 CNS = test system: U251 CNS
UACC-257 melanoma = test system: UACC-257 melanoma
UACC-62 melanoma = test system: UACC-62 melanoma
UO-31 renal = test system: UO-31 renal
EKVX NSCLC = test system: EKVX NSCLC

`CC/C(=C(/c1ccc(O)cc1)c1ccc(OCCN)cc1)c1ccccc1` showed a GI50 (786-0 renal) of 2.69 µM, a TGI (786-0 renal) of 7.28 µM and a GI50 (A498 renal) of 2.49 µM. It also gave a TGI (A498 renal) of 16.8 µM, a GI50 (A549 NSCLC) of 2.97 µM and a TGI (A549 NSCLC) of 8.81 µM. The GI50 (ACHN renal) was 2.4 µM, the TGI (ACHN renal) was 6.76 µM and the GI50 (BT-549 breast) was 6.31 µM. It also gave a TGI (BT-549 breast) of 19.6 µM, a GI50 (CAKI-1 renal) of 1.64 µM and a TGI (CAKI-1 renal) of 4.18 µM. The GI50 (CCRF-CEM leukemia) was 2.87 µM, the TGI (CCRF-CEM leukemia) was 8.77 µM and the GI50 (COLO 205 colon) was 1.95 µM. The TGI (COLO 205 colon) was 3.75 µM, the GI50 (DU-145 prostate) was 3.5 µM and the TGI (DU-145 prostate) was 10.8 µM. The GI50 (HCC-2998 colon) was 1.95 µM, the TGI (HCC-2998 colon) was 3.72 µM and the GI50 (HCT-116 colon) was 1.91 µM. The TGI (HCT-116 colon) was 4.08 µM, the GI50 (HCT-15 colon) was 1.91 µM and the TGI (HCT-15 colon) was 4.06 µM. The GI50 (HL-60(TB) leukemia) was 2.18 µM, the TGI (HL-60(TB) leukemia) was 5.36 µM and the GI50 (HOP-62 NSCLC) was 3.3 µM. For the same compound, the TGI (HOP-62 NSCLC) was 10.7 µM, the GI50 (HOP-92 NSCLC) was 1.46 µM and the TGI (HOP-92 NSCLC) was 5.84 µM. It also gave a GI50 (HS 578T breast) of 2.82 µM, a TGI (HS 578T breast) of 12.8 µM and a GI50 (HT29 colon) of 2.49 µM. For the same compound, the TGI (HT29 colon) was 5.78 µM, the GI50 (IGROV1 ovarian) was 4.62 µM and the TGI (IGROV1 ovarian) was 15.5 µM. For the same compound, the GI50 (K-562 leukemia) was 2.03 µM, the TGI (K-562 leukemia) was 4.72 µM and the GI50 (KM12 colon) was 1.97 µM. It also gave a TGI (KM12 colon) of 3.9 µM, a GI50 (LOX IMVI melanoma) of 1.76 µM and a TGI (LOX IMVI melanoma) of 3.23 µM. For the same compound, the GI50 (M14 melanoma) was 1.81 µM, the TGI (M14 melanoma) was 3.48 µM and the GI50 (MALME-3M melanoma) was 1.69 µM. It also gave a TGI (MALME-3M melanoma) of 3.53 µM, a GI50 (MCF7 breast) of less than 0.0233 µM and a TGI (MCF7 breast) of 3.99 µM. The GI50 (MDA-MB-231 breast) was 1.98 µM, the TGI (MDA-MB-231 breast) was 5.23 µM and the GI50 (MDA-MB-435) was 1.63 µM. The TGI (MDA-MB-435) was 3.42 µM, the GI50 (MOLT-4 leukemia) was 3 µM and the TGI (MOLT-4 leukemia) was 9.07 µM. It also gave a GI50 (NCI-H226 lung) of 11.6 µM, a TGI (NCI-H226 lung) of 30.7 µM and a GI50 (NCI-H23 lung) of 4.56 µM. The TGI (NCI-H23 lung) was 16.5 µM, the GI50 (NCI-H460 lung) was 1.96 µM and the TGI (NCI-H460 lung) was 3.95 µM. It also gave a GI50 (NCI-H522 lung) of 4.26 µM, a TGI (NCI-H522 lung) of 9.36 µM and a GI50 (NCI/ADR-RES ovarian) of 3.31 µM. It also gave a TGI (NCI/ADR-RES ovarian) of 10.6 µM, a GI50 (OVCAR-3 ovarian) of 2.96 µM and a TGI (OVCAR-3 ovarian) of 8.01 µM. It also gave a GI50 (OVCAR-4 ovarian) of 2.88 µM, a TGI (OVCAR-4 ovarian) of 16 µM and a GI50 (OVCAR-5 ovarian) of 6.26 µM. It also gave a TGI (OVCAR-5 ovarian) of 20.2 µM, a GI50 (OVCAR-8 ovarian) of 3.12 µM and a TGI (OVCAR-8 ovarian) of 9.94 µM. It also gave a GI50 (PC-3 prostate) of 2.66 µM, a TGI (PC-3 prostate) of 8.26 µM and a GI50 (RPMI-8226 leukemia) of 2.37 µM. For the same compound, the TGI (RPMI-8226 leukemia) was 5.65 µM, the GI50 (RXF 393 renal) was 2.17 µM and the TGI (RXF 393 renal) was 7.07 µM. It also gave a GI50 (SF-268 CNS) of 3.09 µM, a TGI (SF-268 CNS) of 9.58 µM and a GI50 (SF-295 CNS) of 1.86 µM. It also gave a TGI (SF-295 CNS) of 4 µM, a GI50 (SF-539 CNS) of 3.73 µM and a TGI (SF-539 CNS) of 8.01 µM. The GI50 (SK-MEL-2 melanoma) was 3.6 µM, the TGI (SK-MEL-2 melanoma) was 8.55 µM and the GI50 (SK-MEL-28 melanoma) was 1.75 µM. It also gave a TGI (SK-MEL-28 melanoma) of 3.38 µM, a GI50 (SK-MEL-5 melanoma) of 1.97 µM and a TGI (SK-MEL-5 melanoma) of 4.3 µM. For the same compound, the GI50 (SK-OV-3 ovarian) was 5.06 µM, the TGI (SK-OV-3 ovarian) was 18 µM and the GI50 (SN12C renal) was 3.02 µM. It also gave a TGI (SN12C renal) of 9.67 µM, a GI50 (SNB-19 CNS) of 4.95 µM and a TGI (SNB-19 CNS) of 19 µM. It also gave a GI50 (SNB-75 CNS) of 1.86 µM, a TGI (SNB-75 CNS) of 12.1 µM and a GI50 (SR leukemia) of 1.78 µM. The TGI (SR leukemia) was 4.53 µM, the GI50 (SW-620 colon) was 1.87 µM and the TGI (SW-620 colon) was 3.91 µM. The GI50 (T-47D breast) was 1.67 µM, the TGI (T-47D breast) was 5.94 µM and the GI50 (TK-10 renal) was 4.91 µM. The TGI (TK-10 renal) was 10.2 µM, the GI50 (U251 CNS) was 1.82 µM and the TGI (U251 CNS) was 3.86 µM. The GI50 (UACC-257 melanoma) was 10.5 µM, the TGI (UACC-257 melanoma) was 22.7 µM and the GI50 (UACC-62 melanoma) was 2.44 µM. For the same compound, the TGI (UACC-62 melanoma) was 7.43 µM, the GI50 (UO-31 renal) was 2.72 µM and the TGI (UO-31 renal) was 8.57 µM.
`Cn1ncc2c(Nc3cccc(Cl)c3)nc(Nc3cccc(Cl)c3)nc21` gave a TGI (786-0 renal) of 4.84 µM, a TGI (A498 renal) of 28.9 µM and a TGI (A549 NSCLC) greater than 53.4 µM. The TGI (ACHN renal) was 29.2 µM, the TGI (BT-549 breast) was 59 µM and the TGI (CAKI-1 renal) was 30.8 µM. For the same compound, the TGI (CCRF-CEM leukemia) was 2.89 µM, the TGI (COLO 205 colon) was greater than 53.8 µM and the TGI (DU-145 prostate) was 40 µM. For the same compound, the TGI (EKVX NSCLC) was 54.8 µM, the TGI (HCC-2998 colon) was 27.6 µM and the TGI (HCT-116 colon) was greater than 58.3 µM. The TGI (HCT-15 colon) was 30.9 µM, the TGI (HL-60(TB) leukemia) was 44.9 µM and the TGI (HOP-62 NSCLC) was 68.6 µM. The TGI (HOP-92 NSCLC) was 44.7 µM, the TGI (HS 578T breast) was 43.9 µM and the TGI (HT29 colon) was greater than 56.8 µM. For the same compound, the TGI (IGROV1 ovarian) was greater than 66.6 µM, the TGI (K-562 leukemia) was 19.2 µM and the TGI (KM12 colon) was greater than 42.2 µM. The TGI (LOX IMVI melanoma) was greater than 85.7 µM, the TGI (M14 melanoma) was greater than 58.4 µM and the TGI (MALME-3M melanoma) was 48 µM. For the same compound, the TGI (MCF7 breast) was 32.1 µM, the TGI (MDA-MB-231 breast) was greater than 68.3 µM and the TGI (MDA-MB-435) was greater than 57.6 µM. The TGI (MOLT-4 leukemia) was 47.4 µM, the TGI (NCI-H226 lung) was greater than 72.3 µM and the TGI (NCI-H23 lung) was 57.1 µM. For the same compound, the TGI (NCI-H460 lung) was greater than 30.9 µM, the TGI (NCI-H522 lung) was 39.1 µM and the TGI (NCI/ADR-RES ovarian) was 37.3 µM. The TGI (OVCAR-3 ovarian) was greater than 66.6 µM, the TGI (OVCAR-4 ovarian) was 47.6 µM and the TGI (OVCAR-5 ovarian) was 38.8 µM. The TGI (OVCAR-8 ovarian) was greater than 100 µM, the TGI (PC-3 prostate) was 36 µM and the TGI (RPMI-8226 leukemia) was 19.8 µM. The TGI (RXF 393 renal) was 11.6 µM, the TGI (SF-268 CNS) was 55.8 µM and the TGI (SF-295 CNS) was 21.1 µM. The TGI (SF-539 CNS) was 52 µM, the TGI (SK-MEL-2 melanoma) was 41.7 µM and the TGI (SK-MEL-28 melanoma) was 41.2 µM. The TGI (SK-MEL-5 melanoma) was greater than 51.6 µM, the TGI (SK-OV-3 ovarian) was 54 µM and the TGI (SN12C renal) was greater than 67.5 µM. The TGI (SNB-19 CNS) was greater than 94 µM, the TGI (SNB-75 CNS) was 31.1 µM and the TGI (SW-620 colon) was greater than 58.2 µM. The TGI (T-47D breast) was 37 µM, the TGI (TK-10 renal) was 27.9 µM and the TGI (U251 CNS) was 52.1 µM. It also gave a TGI (UACC-257 melanoma) of 25.9 µM, a TGI (UACC-62 melanoma) of 38.5 µM and a TGI (UO-31 renal) of 35.4 µM.
